In ChEMBL document CHEMBL1154784, “Discovery of potential ZAP-70 kinase inhibitors: pharmacophore design, database screening and docking studies” (Eur J Med Chem, 2009):

Target: T1, Tyrosine-protein kinase ZAP-70 (Homo sapiens, UniProt P43403)
T1 sequence (P43403 whole entry): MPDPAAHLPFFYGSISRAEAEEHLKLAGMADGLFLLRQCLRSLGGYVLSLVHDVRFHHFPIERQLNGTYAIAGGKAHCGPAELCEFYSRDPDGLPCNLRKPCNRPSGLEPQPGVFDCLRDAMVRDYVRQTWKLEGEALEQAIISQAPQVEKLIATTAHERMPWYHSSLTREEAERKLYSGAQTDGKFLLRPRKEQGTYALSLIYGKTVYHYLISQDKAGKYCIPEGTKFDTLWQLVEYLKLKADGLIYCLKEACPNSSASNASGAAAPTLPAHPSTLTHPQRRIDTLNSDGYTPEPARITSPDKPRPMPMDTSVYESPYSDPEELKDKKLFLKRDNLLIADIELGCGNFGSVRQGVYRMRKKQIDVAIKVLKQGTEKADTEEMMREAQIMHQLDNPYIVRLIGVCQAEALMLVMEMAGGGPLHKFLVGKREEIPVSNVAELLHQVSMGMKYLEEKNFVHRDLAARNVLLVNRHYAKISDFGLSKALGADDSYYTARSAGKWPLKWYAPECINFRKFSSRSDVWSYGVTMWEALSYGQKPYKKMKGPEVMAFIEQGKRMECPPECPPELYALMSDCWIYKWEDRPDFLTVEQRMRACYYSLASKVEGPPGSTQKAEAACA
Experiment: Inhibition of human GST-fused ZAP-70 expressed in Sf9 cells

Row | IC50 [µM] | SMILES
1 | 25 | Cc1c(CCC(=O)O)c[nH]c1/C=C1\C(=O)Nc2ccccc21
2 | 28.4 | Cc1[nH]c(/C=C2\C(=O)Nc3ccccc32)c(C)c1CCC(=O)O [ORANTINIB]
